# Assay results reported in article PMC6199744, “Development of Chemical Proteomics for the Folateome and Analysis of the Kinetoplastid Folateome” (ACS Infectious Diseases, 2018).
# System: L. major lysate proteins
# Assay: Multitargeted bead mixture chemoproteomics, single concentration competition, proteome-wide
# Format: binding
# Details: for fold change: vehicle control = 1
compound,measurement,setting,value
NCCOCCOCC(=O)Nc1nc2ncc(CNc3ccc(C(=O)NC(CCC(=O)O)C(=O)O)cc3)nc2c(=O)[nH]1 (stereo not drawn) [compound 6],fold change,"protein LMJF.28.0710 HYPOTHETICAL PROTEIN, CONSERVED (SNARE associated Golgi protein, putative)",1
same,fold change vs vehicle control,"protein LMJF.28.0930 HY[…], CONSERVED",1.01
same,fold change vs vehicle control,protein LMJF.28.0960 40S RIBOSOMAL PROTEIN S14,1.09
same,fold change vs vehicle control,"protein LMJF.28.1530 ATP DEPENDENT DEAD-BOX HELICASE, PUTATIVE",0.91
same,fold change relative to vehicle control,"protein LMJF.28.1730, PROTEASOME REGULATORY NON-ATP-ASE SUBUNIT 2, PUTATIVE",1.1
same,fold change relative to vehicle control,"protein LMJF.28.2310, EUKARYOTIC TRANSLATION INITIATION FACTOR, PUTATIVE",1.1
same,fold change vs vehicle control,"protein LMJF.28.2430 VACUOLAR ATP SYNTHASE SUBUNIT B, PUTATIVE",0.97
same,fold change relative to vehicle control,"protein LMJF.28.2770, HEAT-SHOCK PROTEIN HSP70, PUTATIVE",1.35
same,fold change,"protein LMJF.28.2910 GLUTAMATE DEHYDROGENASE, PUTATIVE",0.9
same,fold change vs vehicle control,"protein LMJF.29.0120 PROTEASOME REGULATORY NON-ATPASE SUBUNIT, PUTATIVE",1
same,fold change,"protein LMJF.29.0620 ATP-BINDING CASSETTE PROTEIN SUBFAMILY A, MEMBER 10, PUTATIVE",0.81
same,fold change vs vehicle control,"protein LMJF.29.0760 […] BI[…], PUTATIVE,HEAT SHOCK PROTEIN 90, PUTATIVE",1.05
same,fold change relative to vehicle control,"protein LMJF.29.0850, HIGH MOBILITY GROUP PROTEIN HOMOLOG TDP-1, PUTATIVE",1.17
same,fold change vs vehicle control,"protein LMJF.29.0940 HY[…], CONSERVED",1.19
same,fold change vs vehicle control,protein LMJF.29.1160 TRYPAREDOXIN,0.8
same,fold change vs vehicle control,"protein LMJF.29.1240 HYPOTHETICAL PROTEIN, UNKNOWN FUNCTION",0.95
same,fold change vs vehicle control,protein LMJF.29.1270 100 kDa heat shock protein (Hsp100),1.02
same,fold change vs vehicle control,"protein LMJF.29.1310 CARNITINE/CHOLINE ACETYLTRANSFERASE, PUTATIVE",1.07
same,fold change relative to vehicle control,"protein LMJF.29.1760, PAR[…] PROTEIN 1D, PUTATIVE",1.02
same,fold change vs vehicle control,"protein LMJF.29.1780 DIPHTHAMIDE SYNTHESIS PROTEIN, PUTATIVE",0.96
same,fold change,"protein LMJF.29.2200 GTP-BINDING PROTEIN, PUTATIVE (dynamin-1-like protein)",1.03
same,fold change,protein LMJF.29.2310 ENOYL-COA HYDRATASE/ISOMERASE-LIKE PROTEIN,0.99
same,fold change vs vehicle control,"protein LMJF.29.2360 ASPARTYL AMINOPEPTIDASE, PUTATIVE,METALLO-PEPTIDASE, CLAN MH, FAMILY M20",0.95
same,fold change,protein LMJF.29.2860 40S RIBOSOMAL PROTEIN S19-LIKE PROTEIN,1.12
same,fold change,"protein LMJF.30.0580 HY[…], CONSERVED (AMP-binding enzyme, putative)",1.03
same,fold change,"protein LMJF.30.0850 SURFACE PROTEIN AMASTIN, PUTATIVE",0.98
same,fold change vs vehicle control,"protein LMJF.30.1250 PYRIDOXAL KINASE, PUTATIVE",1.24
same,fold change vs vehicle control,"protein LMJF.30.2580 RETICULON DOMAIN PROTEIN, 22 KDA POTENTIALLY AGGRAVATING PROTEIN (PAPLE22)",0.95
same,fold change relative to vehicle control,"protein LMJF.30.3090, HY[…], CONSERVED (RNA-binding protein 42, putative)",1.16
same,fold change vs vehicle control,"protein LMJF.30.3240 GLUTAMYL-TRNA SYNTHETASE, PUTATIVE",1.11
same,fold change,"protein LMJF.30.3380 PAS-DOMAIN CONTAINING PHOSPHOGLYCERATE KINASE, PUTATIVE",0.84
same,fold change,"protein LMJF.30.3430 HY[…], CONSERVED (protein mkt1, putative)",1.04
same,fold change,protein LMJF.30.3520 S-ADENOSYLMETHIONINE SYNTHETASE,0.86
same,fold change,"protein LMJF.30.3570 ZINC FINGER-DOMAIN PROTEIN, PUTATIVE",0.86
same,fold change relative to vehicle control,"protein LMJF.31.0080, HYPOTHETICAL PROTEIN, CONSERVED",1.2
same,fold change vs vehicle control,"protein LMJF.31.0340 AMINO ACID PERMEASE, PUTATIVE",1.17
same,fold change,"protein LMJF.31.1130 N-ACYL-L-AMINO ACID AMIDOHYDROLASE, PUTATIVE",0.98
same,fold change vs vehicle control,protein LMJF.31.1640 THIOLASE PROTEIN-LIKE PROTEIN,1.09
same,fold change relative to vehicle control,"protein LMJF.31.2150, PROSTAGLANDIN F2-ALPHA SYNTHASE/D-ARABINOSE DEHYDROGENASE",1.02
same,fold change vs vehicle control,"protein LMJF.31.2250 3,2-TRANS-ENOYL-COA ISOMERASE, MIT[…], PUTATIVE",0.97
same,fold change vs vehicle control,"protein LMJF.32.0750 RNA BINDING PROTEIN, PUTATIVE",1.19
same,fold change vs vehicle control,"protein LMJF.32.1060 DYNEIN, PUTATIVE",0.96
same,fold change relative to vehicle control,"protein LMJF.32.1820, IRON […], PUTATIVE",1.08
same,fold change relative to vehicle control,"protein LMJF.32.2320, C-14 STEROL REDUCTASE, PUTATIVE",1.02
same,fold change relative to vehicle control,"protein LMJF.32.2950, NUCLEOSIDE DIPHOSPHATE KINASE B",0.94
same,fold change vs vehicle control,protein LMJF.32.3870 MYOSIN XXI,0.97
same,fold change relative to vehicle control,"protein LMJF.33.0240, THIOL-DEPENDENT REDUCTASE 1",1.18
same,fold change,"protein LMJF.33.0280 HYPOTHETICAL PROTEIN, CONSERVED",0.92
same,fold change relative to vehicle control,"protein LMJF.33.0890, HY[…], CONSERVED",1.01
same,fold change vs vehicle control,"protein LMJF.33.1070 HY[…], UNKNOWN FUNCTION",1.07
same,fold change vs vehicle control,"protein LMJF.33.1330 CYSTEINE CONJUGATE BETA-LYASE, AMINOTRANSFERASE- LIKE PROTEIN",1.04
same,fold change,"protein LMJF.33.1590 HYPOTHETICAL PROTEIN, CONSERVED (3-ketoacyl-CoA reductase, putative)",0.97
same,fold change relative to vehicle control,"protein LMJF.33.1860, ATP-BINDING CASSETTE PROTEIN SUBFAMILY D, MEMBER 3, PUTATIVE",1.15
same,fold change relative to vehicle control,"protein LMJF.33.2340, SUCCINYL-COA:3-KETOACID-COENZYME A TRANSFERASE, MIT[…], PUTATIVE",1.18
same,fold change relative to vehicle control,"protein LMJF.33.2440, HY[…], CONSERVED",1.19
same,fold change relative to vehicle control,"protein LMJF.33.2540, CARBOXYPEPTIDASE, PUTATIVE,METALLO-PEPTIDASE, CLAN MA(E), FAMILY M32",1.79
same,fold change,"protein LMJF.33.3150 40S RIBOSOMAL PROTEIN S13, PUTATIVE",0.88
same,fold change relative to vehicle control,"protein LMJF.34.0140, MALATE DEHYDROGENASE",1.47
same,fold change vs vehicle control,protein LMJF.34.0440 RIBOSOMAL PROTEIN S25,1.1
same,fold change relative to vehicle control,"protein LMJF.34.2580, HY[…], CONSERVED (ALBA-domain protein 3)",1.11
same,fold change relative to vehicle control,"protein LMJF.34.3250, PUTATIVE PYRUVATE/INDOLE-PYRUVATE CARBOXYLASE, PUTATIVE",0.98
same,fold change,"protein LMJF.34.4370 20S […] 7 SUBUNIT, (PUTATIVE)",0.96
same,fold change vs vehicle control,"protein LMJF.34.4620 HY[…], CONSERVED",1.01
same,fold change,"protein LMJF.35.0070 PROHIBITIN, PUTATIVE",1.04
same,fold change vs vehicle control,"protein LMJF.35.0360 ENOYL-COA HYDRATASE/ISOMERASE FAMILY PROTEIN, CONSERVED",1.24
same,fold change,"protein LMJF.35.0370 ATP-DEPENDENT DEAD-BOX RNA HELICASE, PUTATIVE",1.08
